Laboratory results as given in US10669269B2, “Substituted N-(1H-indazol-4-yl)imidazo[1,2-a]pyridine-3-carboxamide compounds as type III receptor tyrosine kinase inhibitors” (ARRAY BIOPHARMA INC., priority 2010, dated 2020).
pIC50: −log10 of the molar value. Where a name gives a salt, the structure may show the parent alone.

Legend:
PDGFR beta = target: T1, PDGFR beta (Homo sapiens, UniProt P09619); assay: Phospho PDGFR LICOR Cell Assay (Example B); assay type: cell-based; details: averaged IC50; PDGFR beta phosphorylation in HS27 human fibroblast cell line, PDGF-BB stimulation 10 minutes, normalized to total ERK
T1 construct: endogenous in cells; host or cells: HS27 human fibroblast cell line
Experimental: Compounds were screened for inhibition of PDGFR beta phosphorylation in the HS27 human fibroblast cell line. Cells were seeded into a 96 well tissue culture plate, then incubated overnight in a 37° C./5% CO2 incubator. The following day, cells were treated for one hour with test compound dilutions. After stimulation with PDGF-BB ligand for 10 minutes, cells were washed with PBS and fixed in 3.7% formaldehyde in PBS for 10 minutes. This was followed by washing in PBS/0.2% Triton X-100 and permeabilizing in 100% MeOH for 10 minutes. Cells were incubated in blocking buffer for 1 hour. Antibodies to phosphorylated PDGFRβ and total ERK were added to the cells and incubated for 3 hours. After washing with PBS/0.2% Triton X-100, the cells were incubated with fluorescently-labeled secondary antibodies for an additional hour. Cells were then washed with PBS and analyzed for fluorescence at both wavelengths using the Odyssey Infrared Imaging System (LI-COR Biosciences). Phosphorylated PDGFR signal was normalized to total ERK signal. A standard 4-parameter logistic model was fit to the inhibitor dose response curves, with the IC50 being defined as the concentration of inhibitor giving 50 percent of control (POC).

cFMS = target: T2, cFMS (Homo sapiens, UniProt P07333); assay: cFMS Cell-Based Assay (Example C); details: averaged IC50; phospho-cFMS in THP-1 cells stimulated with 250 ng/mL recombinant human MCSF; read-out: cFMS Cell ELISA IC50
T2 construct: THP-1 cells (human acute monocytic leukemia cell line) were serum-starved for 4 hours; endogenous in cells; host or cells: THP-1 cells (human acute monocytic leukemia cell line)
Experimental: The ability of compounds of Formula I to inhibit cFMS activation in cells was determined by the following assay. THP-1 cells (human acute monocytic leukemia cell line) were serum-starved for 4 hours prior to treatment with compounds of Formula I for 1 hour. The concentration of compounds of Formula I was varied over a 9-point, 3-fold dilution series with 5,000 nM typically being the highest dose. Cell culture and treatment were carried out in a humidified 37° C., 5% CO2 incubator. Treated cells were stimulated with 250 ng/mL recombinant human MCSF for 1 minute to induce activation of cFMS. Cells were lysed in a manner which preserves phosphoproteins, and the lysate was analyzed by ELISA (R&D Systems, Human Phospho-M-CSF R DuoSet IC DYC3268), in which total cFMS protein in the lysate is captured and phosphotyrosine residues of cFMS are detected. A standard curve, made using purified phospho-M-CSF R protein, was used to quantify phospho-c-FMS in compound-treated wells. A standard 4-parameter logistic model was fit to the inhibitor dose response curves, with the IC50 being defined as the concentration of inhibitor giving 50 percent of control (POC).

c-KIT = target: T3, c-KIT (Homo sapiens, UniProt P10721); assay: c-KIT Cell-Based Assay (Example D); details: averaged IC50; phospho-c-KIT in M-07e cells stimulated with 150 ng/ml recombinant human SCF; read-out: cKIT Cell ELISA IC50
T3 construct: M-07e cells (human acute megakaryoblastic leukemia cell line) were serum-starved for 4 hours; endogenous in cells; host or cells: M-07e cells (human acute megakaryoblastic leukemia cell line)
Experimental: The ability of compounds of Formula I to inhibit c-KIT activation in cells was determined by the following assay. M-07e cells (human acute megakaryoblastic leukemia cell line) were serum-starved for 4 hours prior to treatment with compounds of Formula I for 1 hour. The concentration of compounds of Formula I was varied over a 9-point, 3-fold dilution series with 5,000 nM typically being the highest dose. Cell culture and treatment were carried out in a humidified 37° C., 5% CO2 incubator. Treated cells were stimulated with 150 ng/ml recombinant human SCF for 4 minutes to induce activation of c-KIT. Cells were lysed in a manner which preserves phosphoproteins, and the lysate was analyzed by ELISA (R&D Systems, Human Phospho-SCF R DuoSet IC DYC3527), in which total c-KIT protein in the lysate is captured and phosphotyrosine residues of c-Kit are detected. A standard curve, made using purified phospho-SCF R protein, was used to quantify phospho-c-KIT in compound-treated wells. A standard 4-parameter logistic model was fit to the inhibitor dose response curves, with the IC50 being defined as the concentration of inhibitor giving 50 percent of control (POC).

T3 sequence (P10721 26-976): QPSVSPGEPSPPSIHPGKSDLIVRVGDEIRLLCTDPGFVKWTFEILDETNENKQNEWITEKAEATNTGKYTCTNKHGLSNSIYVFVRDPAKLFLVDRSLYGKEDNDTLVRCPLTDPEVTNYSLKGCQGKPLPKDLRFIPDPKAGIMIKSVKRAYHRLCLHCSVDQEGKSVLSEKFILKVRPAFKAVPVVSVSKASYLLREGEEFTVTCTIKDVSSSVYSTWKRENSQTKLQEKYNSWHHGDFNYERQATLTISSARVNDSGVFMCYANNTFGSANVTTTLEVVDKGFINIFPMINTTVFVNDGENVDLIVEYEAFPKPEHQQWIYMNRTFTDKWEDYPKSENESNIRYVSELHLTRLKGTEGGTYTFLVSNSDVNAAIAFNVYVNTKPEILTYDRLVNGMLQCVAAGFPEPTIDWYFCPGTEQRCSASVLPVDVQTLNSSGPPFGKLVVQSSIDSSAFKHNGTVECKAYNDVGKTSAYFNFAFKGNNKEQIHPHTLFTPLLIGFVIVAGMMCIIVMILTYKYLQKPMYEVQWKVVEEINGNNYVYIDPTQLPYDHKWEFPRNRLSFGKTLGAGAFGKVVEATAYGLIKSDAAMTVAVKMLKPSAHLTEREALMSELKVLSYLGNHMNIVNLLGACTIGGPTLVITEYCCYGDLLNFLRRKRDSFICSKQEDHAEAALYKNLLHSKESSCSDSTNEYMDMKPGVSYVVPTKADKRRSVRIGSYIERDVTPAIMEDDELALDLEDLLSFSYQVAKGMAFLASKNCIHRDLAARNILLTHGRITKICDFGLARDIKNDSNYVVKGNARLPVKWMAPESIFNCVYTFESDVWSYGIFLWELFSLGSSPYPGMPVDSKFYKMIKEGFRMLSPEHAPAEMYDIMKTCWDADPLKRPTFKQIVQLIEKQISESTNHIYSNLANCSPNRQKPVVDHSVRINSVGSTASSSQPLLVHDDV
T1 sequence (P09619 33-1106): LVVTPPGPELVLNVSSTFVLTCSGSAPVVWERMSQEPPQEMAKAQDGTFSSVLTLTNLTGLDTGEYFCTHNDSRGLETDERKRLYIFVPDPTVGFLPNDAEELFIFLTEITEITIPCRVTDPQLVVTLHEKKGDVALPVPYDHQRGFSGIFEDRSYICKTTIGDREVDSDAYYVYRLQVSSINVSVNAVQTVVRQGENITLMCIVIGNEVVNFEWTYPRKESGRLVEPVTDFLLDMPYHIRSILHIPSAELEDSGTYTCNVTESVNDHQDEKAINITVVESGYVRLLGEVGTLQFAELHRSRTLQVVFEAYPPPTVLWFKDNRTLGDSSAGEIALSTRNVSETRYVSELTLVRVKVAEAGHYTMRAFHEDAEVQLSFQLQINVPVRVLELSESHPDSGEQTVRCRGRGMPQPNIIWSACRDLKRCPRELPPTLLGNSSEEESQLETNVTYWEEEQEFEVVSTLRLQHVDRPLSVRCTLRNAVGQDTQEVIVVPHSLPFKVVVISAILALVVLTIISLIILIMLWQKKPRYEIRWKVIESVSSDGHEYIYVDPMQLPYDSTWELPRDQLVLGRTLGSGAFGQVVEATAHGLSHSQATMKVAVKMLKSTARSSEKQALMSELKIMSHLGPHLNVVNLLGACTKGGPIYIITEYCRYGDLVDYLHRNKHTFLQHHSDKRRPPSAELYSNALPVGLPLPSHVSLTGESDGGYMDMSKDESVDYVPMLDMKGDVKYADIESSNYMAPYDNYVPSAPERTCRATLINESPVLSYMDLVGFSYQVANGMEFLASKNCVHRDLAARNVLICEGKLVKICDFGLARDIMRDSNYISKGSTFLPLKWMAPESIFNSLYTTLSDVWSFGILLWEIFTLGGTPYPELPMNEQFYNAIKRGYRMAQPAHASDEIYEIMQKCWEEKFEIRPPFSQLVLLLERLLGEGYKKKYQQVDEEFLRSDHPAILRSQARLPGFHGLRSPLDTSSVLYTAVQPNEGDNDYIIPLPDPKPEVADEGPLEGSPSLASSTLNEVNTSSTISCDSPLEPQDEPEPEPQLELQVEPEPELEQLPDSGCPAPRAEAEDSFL
T2 sequence (P07333 20-972): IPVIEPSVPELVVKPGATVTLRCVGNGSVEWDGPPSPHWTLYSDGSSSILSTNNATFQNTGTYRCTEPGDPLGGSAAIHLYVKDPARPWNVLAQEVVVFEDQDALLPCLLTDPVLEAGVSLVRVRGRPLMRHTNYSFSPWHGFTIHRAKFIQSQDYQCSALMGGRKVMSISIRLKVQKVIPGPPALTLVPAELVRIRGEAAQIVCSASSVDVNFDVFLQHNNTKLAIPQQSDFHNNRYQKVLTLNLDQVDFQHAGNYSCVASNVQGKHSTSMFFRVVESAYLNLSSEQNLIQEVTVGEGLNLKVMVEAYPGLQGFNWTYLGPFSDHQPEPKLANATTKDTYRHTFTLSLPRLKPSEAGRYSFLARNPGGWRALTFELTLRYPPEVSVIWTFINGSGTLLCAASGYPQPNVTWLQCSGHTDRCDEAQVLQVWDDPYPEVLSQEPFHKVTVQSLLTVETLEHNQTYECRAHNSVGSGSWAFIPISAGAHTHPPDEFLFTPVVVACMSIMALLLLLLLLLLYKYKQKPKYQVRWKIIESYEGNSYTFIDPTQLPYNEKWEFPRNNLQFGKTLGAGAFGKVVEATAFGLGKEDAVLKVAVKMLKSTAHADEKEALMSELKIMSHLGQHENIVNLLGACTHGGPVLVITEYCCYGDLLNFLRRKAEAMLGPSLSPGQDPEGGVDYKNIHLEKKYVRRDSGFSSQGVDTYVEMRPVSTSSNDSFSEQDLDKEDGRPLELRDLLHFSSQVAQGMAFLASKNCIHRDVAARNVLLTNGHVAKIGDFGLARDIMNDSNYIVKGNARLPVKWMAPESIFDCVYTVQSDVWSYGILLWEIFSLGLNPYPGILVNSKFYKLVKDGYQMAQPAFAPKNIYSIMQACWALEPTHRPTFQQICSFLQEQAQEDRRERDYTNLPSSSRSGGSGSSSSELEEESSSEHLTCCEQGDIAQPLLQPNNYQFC

| pIC50 (PDGFR beta) | pIC50 (cFMS) | pIC50 (c-KIT) | Structure (SMILES) |
| --- | --- | --- | --- |
| 7.84 | 6.94 | 8.42 | COC(=O)c1cccc(Cn2ncc3c(NC(=O)c4cnc5cc(OCCN6CCN(C)CC6)ccn45)cccc32)c1 [Example 96, Methyl 3-((4-(7-(2-(4-methylpiperazin-1-yl)ethoxy)imidazo[1,2-a]pyridine-3-carboxamido)-1H-indazol-1-yl)methyl)benzoate dihydrochloride] |
| 8.24 | 7.58 | 8.31 | CN1CCN(CCOc2ccn3c(C(=O)Nc4cccc5c4cnn5Cc4cccc(C(F)(F)F)c4)cnc3c2)CC1 [Example 98, 7-(2-(4-methylpiperazin-1-yl)ethoxy)-N-(1-(3-(trifluoromethyl)benzyl)-1H-indazol-4-yl)imidazo[1,2-a]pyridine-3-carboxamide dihydrochloride] |
| 8.59 | 8.48 | 8.57 | CCOc1cccc(Cn2ncc3c(NC(=O)c4cnc5cc(OCCN6CCN(C)CC6)ccn45)cccc32)n1 [Example 105, N-(1-((6-ethoxypyridin-2-yl)methyl)-1H-indazol-4-yl)-7-(2-(4-methylpiperazin-1-yl)ethoxy)imidazo[1,2-a]pyridine-3-carboxamide] |
| 6.25 | 6.80 | 6.13 | CN1CCN(CCOc2ccn3c(C(=O)Nc4cccc5c4cnn5Cc4cn(C)cn4)cnc3c2)CC1 [Example 106, N-(1-((1-methyl-1H-imidazol-4-yl)methyl)-1H-indazol-4-yl)-7-(2-(4-methylpiperazin-1-yl)ethoxy)imidazo[1,2-a]pyridine-3-carboxamide dihydrochloride] |
| 6.80 | 7.35 | 6.91 | CN1CCN(CCOc2ccn3c(C(=O)Nc4cccc5c4cnn5CCc4ccccn4)cnc3c2)CC1 [Example 107, 7-(2-(4-methylpiperazin-1-yl)ethoxy)-N-(1-(2-(pyridin-2-yl)ethyl)-1H-indazol-4-yl)imidazo[1,2-a]pyridine-3-carboxamide] |
| 6.35 | 6.82 | 6.35 | COCCOc1ccn2c(C(=O)Nc3cccc4c3cnn4Cc3ccncc3)cnc2c1 [Example 111, 7-(2-methoxyethoxy)-N-(1-(pyridin-4-ylmethyl)-1H-indazol-4-yl)imidazo[1,2-a]pyridine-3-carboxamide] |
| 6.54 | 6.92 | 6.48 | COCCOc1ccn2c(C(=O)Nc3cccc4c3cnn4CC3CCOCC3)cnc2c1 [Example 113, 7-(2-methoxyethoxy)-N-(1-((tetrahydro-2H-pyran-4-yl)methyl)-1H-indazol-4-yl)imidazo[1,2-a]pyridine-3-carboxamide] |

Continued, compound first:

| Structure (SMILES) | pIC50 (PDGFR beta) | pIC50 (cFMS) | pIC50 (c-KIT) |
| --- | --- | --- | --- |
| COCCOc1ccn2c(C(=O)Nc3cccc4c3cnn4Cc3cccc(C(N)=O)c3)cnc2c1 [Example 94, N-(1-(3-carbamoylbenzyl)-1H-indazol-4-yl)-7-(2-methoxyethoxy)imidazo[1,2-a]pyridine-3-carboxamide] | 7.19 | 7.33 | 7.02 |
| CNC(=O)c1cccc(Cn2ncc3c(NC(=O)c4cnc5cc(OCCOC)ccn45)cccc32)c1 [Example 95, 7-(2-Methoxyethoxy)-N-(1-(3-(methylcarbamoyl)benzyl)-1H-indazol-4-yl)imidazo[1,2-a]pyridine-3-carboxamide] | 7.13 | 7.50 | 7.11 |
| CN1CCN(CCOc2ccn3c(C(=O)Nc4cccc5c4cnn5Cc4cccc(C(=O)N(C)C)c4)cnc3c2)CC1 [Example 97, N-(1-(3-(dimethylcarbamoyl)benzyl)-1H-indazol-4-yl)-7-(2-(4-methylpiperazin-1-yl)ethoxy)imidazo[1,2-a]pyridine-3-carboxamide dihydrochloride] | 8.02 | 7.98 | 7.59 |
| CN1CCN(CCOc2ccn3c(C(=O)Nc4cccc5c4cnn5Cc4cccc(C#N)c4)cnc3c2)CC1 [Example 99, N-(1-(3-cyanobenzyl)-1H-indazol-4-yl)-7-(2-(4-methylpiperazin-1-yl)ethoxy)imidazo[1,2-a]pyridine-3-carboxamide] | 8.19 | 8.25 | 7.94 |
| CN1CCN(CCOc2ccn3c(C(=O)Nc4c(Cl)ccc5c4cnn5Cc4cccc(C(F)(F)F)c4)cnc3c2)CC1 [Example 100, N-(5-chloro-1-(3-(trifluoromethyl)benzyl)-1H-indazol-4-yl)-7-(2-(4-methylpiperazin-1-yl)ethoxy)imidazo[1,2-a]pyridine-3-carboxamide] | 8.22 | 7.63 | 8.48 |
| Cc1cccc(Cn2ncc3c(NC(=O)c4cnc5cc(OCCN6CCN(C)CC6)ccn45)ccc(Cl)c32)n1 [Example 101, N-(7-chloro-1-((6-methylpyridin-2-yl)methyl)-1H-indazol-4-yl)-7-(2-(4-methylpiperazin-1-yl)ethoxy)imidazo[1,2-a]pyridine-3-carboxamide trihydrochloride] | 7.63 | 7.36 | 7.52 |
| CN1CCN(CCOc2ccn3c(C(=O)Nc4cccc5c4cnn5Cc4cccnc4)cnc3c2)CC1 [Example 102, 7-(2-(4-methylpiperazin-1-yl)ethoxy)-N-(1-(pyridin-3-ylmethyl)-1H-indazol-4-yl)imidazo[1,2-a]pyridine-3-carboxamide trihydrochloride] | 7.75 | 7.59 | 7.02 |
| CN1CCN(CCOc2ccn3c(C(=O)Nc4cccc5c4cnn5Cc4ccc(C(F)(F)F)cn4)cnc3c2)CC1 [Example 103, 7-(2-(4-Methylpiperazin-1-yl)ethoxy)-N-(1-((5-(trifluoromethyl)pyridin-2-yl)methyl)-1H-indazol-4-yl)imidazo[1,2-a]pyridine-3-carboxamide trihydrochloride] | 8.57 | 8.14 | 8.14 |
| CN1CCN(CCOc2ccn3c(C(=O)Nc4cccc5c4cnn5Cc4cccn(C)c4=O)cnc3c2)CC1 [Example 104, N-(1-((1-methyl-2-oxo-1,2-dihydropyridin-3-yl)methyl)-1H-indazol-4-yl)-7-(2-(4-methylpiperazin-1-yl)ethoxy)imidazo[1,2-a]pyridine-3-carboxamide dihydrochloride] | 7.11 | 7.47 | 6.40 |
| CN1CCN(CCOc2ccn3c(C(=O)Nc4cccc5c4cnn5Cc4ccc5[nH]cnc5c4)cnc3c2)CC1 [Example 108, N-(1-((1H-benzo[d]imidazol-5-yl)methyl)-1H-indazol-4-yl)-7-(2-(4-methylpiperazin-1-yl)ethoxy)imidazo[1,2-a]pyridine-3-carboxamide dihydrochloride] | 6.85 | 7.18 | 6.74 |
| COCCOc1ccn2c(C(=O)Nc3cccc4c3cnn4CC3CC3)cnc2c1 [Example 110, N-(1-(cyclopropylmethyl)-1H-indazol-4-yl)-7-(2-methoxyethoxy)imidazo[1,2-a]pyridine-3-carboxamide] | 6.00 | 6.42 | 6.77 |
| COCCOc1ccn2c(C(=O)Nc3cccc4c3cnn4Cc3ccccn3)cnc2c1 [Example 112, 7-(2-methoxyethoxy)-N-(1-(pyridin-2-ylmethyl)-1H-indazol-4-yl)imidazo[1,2-a]pyridine-3-carboxamide] | 7.78 | 7.47 | 7.16 |
